For orientation: IC50 means the concentration that gives 50% inhibition.

Experimental findings from PMC4840416, “Constructing and Validating High-Performance MIEC-SVM Models in Virtual Screening for Kinases: A Better Way for Actives Discovery” (Scientific Reports, 2016) are described below.

In the assay the target is T1, recombinant human ALK protein (Homo sapiens, UniProt Q9UM73).
T1 construct: purchased Life Technologies Inc. PV3867
Description: LanthaScreen TR-FRET in vitro inhibitory activity assay of ALK. The class given is biochemical. To be noted: for IC50: TR-FRET, 5 μM ATP, 1 hour at room temperature; for inhibition at 2 µg/mL / Averaged Enzymatic Inhibition @ 2ug/ml (%): compound at 2ug/ml; for inhibition at 2 µg/mL: read-out: Averaged Enzymatic Inhibition @ 2ug/ml (%). How it is done: All reagents and anhydrous solvents were obtained from commercial sources and used as received. The positive control inhibitors of ALK, crizotinib and ceritinib, were purchased from Bangshunda Technology and Selleck Chemicals, respectively. The compounds were dissolved in 100% dimethyl sulfoxide (DMSO) as a 10 mM stock solution. The final DMSO concentration in each reaction was less than 1%. Purified recombinant human ALK protein (Catalog number: PV3867) as well as reagents for TR-FRET assay, including Lantha Screen™ Tb-PY20 (Catalog number: PV3552), Fluorescein-Poly GT (Catalog number: PV3610), ATP (Catalog number: PV3227), Kinase Quench Buffer (Catalog number: P2832), Kinase Buffer (Catalog number: PV3189), and Antibody Dilution Buffer (Catalog number: PV3574), were all obtained from Life Technologies Inc.
Lantha Screen™ kinase assay based on TR-FRET technology was used to measure the inhibitory activity of the screened compounds. All the assays were carried out in 384-well plate format. The 4 × test compounds were firstly prepared before the enzyme reaction starts. The 4 × recombinant human ALK protein and 2 × Substrate/ATP mixture were separately prepared in 50 mM HEPES (pH = 7.5), 0.01% BRIJ-35, 10 mM MgCl2, 4 mM MnCl2, 1 mM EGTA, and 2 mM DTT. The final 10 μL kinase reaction consists of 5 μL 1 × Substrate/ATP mixture (0.2 μM substrate and 5 μM ATP), 2.5 μL ALK (5 ng/ml ALK protein), and 2.5 μL 1 × test compounds with desired concentration. The assay plate was shook on a plate shaker for 30 seconds to mix the reactions thoroughly. After 1 hour kinase reaction incubation at room temperature (20 ~ 25 °C), 10 μL of pre-prepared 20 mM EDTA and 4 nM Tb-labeled antibody solution was then added to terminate the kinase reactions and to initiate antibody binding, and the assay plate was incubated for another 1 hour at room temperature. Then, the assay plate was placed into a fluorescence plate reader (BioTek Synergy™ 4) to measure both fluoresce in and terbium emission signals (excitation: 340 nm; emission: 520 and 495 nm, respectively) with 100 μs delay time and 200 μs integration time. To determine the IC50 values, the resulted inhibitory activity calculated from TR-FRET emission ratio (i.e. fluoresce in emission intensity/terbium emission intensity) was plotted against the concentration of inhibitor, and the data was fitted to a dose-response curve with a variable slop.

T1 sequence (Q9UM73 1058-1620 limits assumed): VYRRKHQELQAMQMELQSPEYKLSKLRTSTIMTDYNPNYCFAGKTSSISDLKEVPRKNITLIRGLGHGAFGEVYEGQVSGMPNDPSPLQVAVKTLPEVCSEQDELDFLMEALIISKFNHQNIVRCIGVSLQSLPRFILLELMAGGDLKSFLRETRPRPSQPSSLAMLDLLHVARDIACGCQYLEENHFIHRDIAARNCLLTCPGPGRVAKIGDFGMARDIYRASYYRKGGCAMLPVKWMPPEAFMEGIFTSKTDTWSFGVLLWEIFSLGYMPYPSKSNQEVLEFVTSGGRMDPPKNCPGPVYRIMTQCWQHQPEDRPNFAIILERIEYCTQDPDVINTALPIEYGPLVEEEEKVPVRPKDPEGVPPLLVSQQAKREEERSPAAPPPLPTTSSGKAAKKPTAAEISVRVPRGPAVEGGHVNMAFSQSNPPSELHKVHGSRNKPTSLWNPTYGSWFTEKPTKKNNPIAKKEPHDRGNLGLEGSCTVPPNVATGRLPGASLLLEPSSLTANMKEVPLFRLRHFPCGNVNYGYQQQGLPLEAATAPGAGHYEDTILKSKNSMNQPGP

On to `CN1C(=O)c2cccc3c(S(=O)(=O)Nc4nc[nH]n4)ccc1c23` [Compound M6], for which the IC50 worked out at 4.45 µM and the inhibition at 2 µg/mL came out at 53.3%.

`CCN1C(=O)c2cccc3c(S(=O)(=O)Nc4nc5ccccc5s4)ccc1c23` [Compound M7]: the IC50 was found to be 6.05 µM and the inhibition at 2 µg/mL is 50.8%.

Regarding `Cc1cccc2cc3c(nc12)N(C(=O)c1ccc(S(=O)(=O)N2CCCCC2)cc1)CC3` [Compound M8], the IC50 is 11.5 µM and the “Averaged Enzymatic Inhibition @ 2ug/ml (%)” value was 48.88%.

Regarding `Cc1c(C=C2C(=O)N(C)C(=S)N(C)C2=O)c2ccccc2n1Cc1ccccc1` [Compound M9], the 50% inhibitory concentration (IC50) is 18.2 µM and the “Averaged Enzymatic Inhibition @ 2ug/ml (%)” value is recorded as 37.24%.
